Our source for the Ki and EC50 values is patent US20260125375A1 (Pfizer Inc., priority 2022, published 2026).

Like-named read-outs stand apart in the source and are kept apart here.

For orientation: Ki means the equilibrium dissociation constant of an inhibitor or competing ligand from its target. For orientation: EC50 means the concentration that produces a half-maximal response.

Assay [1] concerns the target T1, CBL-B (residues 36-427) (Homo sapiens, UniProt Q13191).
T1 construct: Purified CBL-B (residues 36-427) and C-CBL (residues 46-435) proteins from baculovirus-infected insect cells; made in house; host or cells: baculovirus-infected insect cells
The experiment in a line: Ligand Displacement Assay (LDA), HTRF competitive binding against BODIPY-labeled fluorescent tracer, CBL-B. The conditions noted are these: geometric mean of the number of tests, read-out: CBL-B Ki (nM) GMean. A digest of the protocol: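 Terbium-streptavidin donor on BirA-biotinylated, AviTagged protein from baculovirus-infected insect cells; BODIPY tracer as acceptor. Compound titrations were three-fold and duplicated, […] with 2% DMSO final.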
A general note: TR-FRET usually uses a lanthanide donor and a delayed reading to cut background.

Assay [2] addresses T2, CBL-B (Homo sapiens, UniProt Q13191).
T2 construct: endogenous in cells; host or cells: Jurkat HiBit-IL2 reporter cells, C-CBL knocked out by CRISPR
The experiment in a line: Jurkat HiBit-IL2 assay (c-CBL KO), reporter cell line expressing CBL-B only. It counts as cell-based. The conditions noted are these: geometric mean, read-out: C-CBL KO EC50 (nM) GMean. Summed up:
(§1)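 CRISPR knockout Jurkat HiBit-IL2 reporter cells (20,000/well) were preincubated 1 h with compounds (0.1% DMSO), then stimulated 4 h at 37 °C with anti-CD3 (1 μg/ml) and anti-CD28 (2 μg/ml) final. IL-2 was read by HiBiT lytic luminescence, normalized as fold over antibody-only baseline; EC50 reported as geometric mean.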
A general note: HiBiT is a short tag that completes a luciferase, so light tracks the accessible tagged protein.

Assay [3] addresses T3, C-CBL (Homo sapiens, UniProt P22681).
T3 construct: endogenous in cells; host or cells: Jurkat HiBit-IL2 reporter cells, CBL-B knocked out by CRISPR
The experiment in a line: Jurkat HiBit-IL2 assay (CBL-B KO), reporter cell line expressing C-CBL only. It counts as cell-based. The note with it: geometric mean, read-out: CBL-B KO EC50 (nM) GMean. Summed up:
as §1

The mark [4] stands for this setting: c-CBL KO (CBL-B only), anti-CD3/anti-CD28 stimulation 4 hours, Table 16a.
The mark [5] stands for this setting: CBL-B KO (C-CBL only), anti-CD3/anti-CD28 stimulation 4 hours, Table 16a.

`CC(NC1CNC1)c1nc(C(F)(F)F)cc2c(-c3cccc(C4(Cc5nncn5C)COC4)c3)n[nH]c12` (single isomer, unassigned) [Example C28, N-{(1ξ)-1-[3-(3-{3-[(4-methyl-4H-1,2,4-triazol-3-yl)methyl]oxetan-3-yl}phenyl)-5-(trifluoromethyl)-1H-pyrazolo[3,4-c]pyridin-7-yl]ethyl}azetidin-3-amine]: the Ki in assay [1] came out at 33.4 nM. Also, the EC50 in assay [2] (setting [4]) is greater than 2070 nM; in assay [3] (setting [5]) it was greater than 5190 nM.

Turning to `C[C@H]1CN(Cc2nc(C(F)(F)F)cc3c(-c4cccc([C@H](c5nncn5C)C5CCC5)c4)n[nH]c23)CCO1` [Example C6, 3-{3-[(R)-cyclobutyl(4-methyl-4H-1,2,4-triazol-3-yl)methyl]phenyl}-7-{[(2S)-2-methylmorpholin-4-yl]methyl}-5-(trifluoromethyl)-1H-pyrazolo[3,4-c]pyridine], in assay [1], the Ki was found to be 25.8 nM. Besides, the EC50 was 115 nM in assay [2] (setting [4]) and 807 nM in assay [3] (setting [5]).

Consider `C[C@H](N)c1nc(C(F)(F)F)cc2c(-c3cccc([C@H](c4nncn4C)C4CCC4)c3)n[nH]c12` [Example K12, (1S)-1-[3-{3-[(R)-cyclobutyl(4-methyl-4H-1,2,4-triazol-3-yl)methyl]phenyl}-5-(trifluoromethyl)-1H-pyrazolo[3,4-c]pyridin-7-yl]ethan-1-amine], for which the inhibition constant Ki in assay [1] was found to be 19.3 nM. The concentration for a half-maximal effect (EC50) in assay [2] (C-CBL KO (expressing CBL-B only), Table 16b (further repetition)) worked out at 895 nM; in assay [3] (CBL-B KO (expressing C-CBL only), Table 16b (further repetition)) it was 2080 nM.
